Consider three molecules from publication PMC11555717 (Cancer Medicine, 2024).

The nature of data set [1]: EV-203 pharmacokinetics of ADC, TAb and free MMAE in serum or plasma. It counts as in vivo, human. As to conditions: for Time of peak free MMAE concentration postinfusion: after end of enfortumab vedotin infusion. As to the method:
In the PK cohort (i.e., PK analysis set), intensive PK sampling was performed wherein blood samples for analysis of ADC, total antibody (TAb), and free (unconjugated) MMAE were collected at prespecified time points. […] Blood samples for antitherapeutic antibodies (ATAs) were collected predose on Day 1 of cycles 1 to 4, 6, 8, 10, and within 30–37 days after the last study dose. Validated assays were used to measure concentrations of ADC, TAb, and free MMAE in serum or plasma and to assess ATA levels.
All patients who received any amount of study drug were included in the primary analyses of efficacy endpoints and safety analyses. The PK analyses included data from patients in the PK cohort who received at least 3 of 4 doses of the study drug through cycle 2 Day 1 and had at least five blood samples collected and assayed for measurements of ADC, TAb, or free MMAE concentrations to determine at least one PK parameter.

Data set [2] has as its system patients with HER2-positive (IHC2+ or 3+) unresectable locally advanced or mUC. Set-up: method as in earlier work. Particulars: pooled two phase 2 studies, combined N = 107; 95% CI 40.6%–60.3%; cited from earlier work.
Setting [3] is: cycle 1 Day 1, Non-PK cohort, mean (SD).
The mark [4] stands for this setting: cycle 1 Day 1, PK cohort, mean (SD).
Where [5] appears, read: cycle 1 Day 8, Non-PK cohort, mean (SD).
[6] abbreviates: cycle 1 Day 8, PK cohort, mean (SD).
[7] abbreviates: cycle 1 Day 15, Non-PK cohort, mean (SD).
The mark [8] stands for this setting: cycle 1 Day 15, PK cohort, mean (SD).
The mark [9] stands for this setting: plasma, Cycle 1 Day 15, third to first dose, mean (SD).

Square brackets hold non-standard residues; d marks the D form. Peptide text beside a SMILES is read from it. * marks the point of attachment. Dolaproine = CO[C@@H]([C@@H]1CCCN1)[C@@H](C)C(=O)O; Dil = CC[C@H](C)[C@H](NC)[C@@H](CC(=O)O)OC; X1 = C[C@@H](N*)[C@@H](O)c1ccccc1; NMeV = CN[C@H](C(=O)O)C(C)C

As to “TAb: total antibody analyte measured in serum after enfortumab vedotin dosing”, the “Serum concentration at end of infusion” value in data set [1] (setting [3]) was 29,100 (5050) [23] ng/mL; in data set [1] (setting [4]), 30,800 (5730) [13] ng/mL; in data set [1] (setting [5]), 29,900 (5450) [17] ng/mL; in data set [1] (setting [6]), 34,300 (6640) [12] ng/mL; in data set [1] (setting [7]), 27,600 (6210) [11] ng/mL; in data set [1] (setting [8]) it was 33,600 (5450) [10] ng/mL. The “AUC0–7d” value was 77.4 (17.3) day μg/mL in data set [1] (serum, Cycle 1 Day 1, PK cohort, 1.25 mg/kg IV, mean (SD)) and 94.7 (15.7) day μg/mL in data set [1] (serum, Cycle 1 Day 15, PK cohort, 1.25 mg/kg IV, mean (SD)). The C max is given as 31.7 (5.73) μg/mL in data set [1] (serum, Cycle 1 Day 1, PK cohort, mean (SD)) and 34.4 (4.64) μg/mL in data set [1] (serum, Cycle 1 Day 15, PK cohort, mean (SD)). Moreover, the “Time of peak serum concentration” value in data set [1] (serum, PK cohort cycle 1) was “at the end of the enfortumab vedotin infusion”.

On to `CC[C@H](C)[C@@H]([C@@H](CC(=O)N1CCC[C@H]1[C@H](OC)[C@@H](C)C(=O)N[C@H](C)[C@@H](O)c1ccccc1)OC)N(C)C(=O)[C@@H](NC(=O)[C@@H](NC)C(C)C)C(C)C` [Free MMAE, monomethyl auristatin E] (H-[NMeV]V[Dil][Dolaproine]-X1), for which the “Plasma concentration at end of infusion” value is 376 (241) [23] pg/mL in data set [1] (setting [3]); 357 (154) [13] pg/mL in data set [1] (setting [4]); 2720 (1490) [17] pg/mL in data set [1] (setting [5]); 1680 (1290) [12] pg/mL in data set [1] (setting [6]); 3350 (2600) [11] pg/mL in data set [1] (setting [7]); 2110 (1680) [10] pg/mL in data set [1] (setting [8]). The “Median t max (range)” value is on record as 2.00 (1.87–2.93) days in data set [1] (plasma, Cycle 1 Day 1) and 1.93 (0.86–2.92) days in data set [1] (plasma, Cycle 1 Day 15). Further, the “AUC0–7d” value in data set [1] (plasma, Cycle 1 Day 1, after enfortumab vedotin 1.25 mg/kg IV, mean (SD)) is reported as 16.9 (9.2) day ng/mL; in data set [1] (plasma, Cycle 1 Day 15, after enfortumab vedotin 1.25 mg/kg IV, mean (SD)), 23.3 (16.4) day ng/mL. Moreover, the C max in data set [1] (plasma, Cycle 1 Day 1, mean (SD)) is reported as 3.3 (1.74) ng/mL; in data set [1] (plasma, Cycle 1 Day 15, mean (SD)), 4.5 (3.58) ng/mL. The “R ac (AUC0–7d), accumulation ratio” value in data set [1] (setting [9]) was 1.32 (0.486). For the same molecule, the “R ac (Cmax), accumulation ratio” value in data set [1] (setting [9]) is 1.28 (0.499). The “Time of peak free MMAE concentration postinfusion” value in data set [1] (plasma, listed as MMAE) is “approximately 2 days”; in data set [1] (plasma, listed as free MMAE), 2 to 3 days. Also, the “Mean accumulation ratios (third to first dose) for maximum concentration and AUC0–7d” value in data set [1] (range over ADC, TAb and free MMAE, repeat dosing) was in the range of 1.03 to 1.32.

B1: disitamab vedotin (conjugate, chains of the INN, looked up)
VH: EVQLVQSGAEVKKPGATVKISCKVSGYTFTDYYIHWVQQAPGKGLEWMGRVNPDHGDSYYNQKFKDKATITADKSTDTAYMELSSLRSEDTAVYFCARNYLFDHWGQGTLVTVSS
VL: DIQMTQSPSSVSASVGDRVTITCKASQDVGTAVAWYQQKPGKAPKLLIYWASIRHTGVPSRFSGSGSGTDFTLTISSLQPEDFATYYCHQFATYTFGGGTKVEIK
modifications: vedotin (MMAE) payload
With B1, in data set [2], the ORR is on record as 50.5%.
